The source of these data is ChEMBL document CHEMBL1135319, “New N-alkyl-1,2-dihydro-2-thioxo-3-pyridinecarbothioamides as antituberculous agents with improved pharmacokinetics” (Bioorg Med Chem Lett, 2002).

Each structure is given as a SMILES string. Values after ≈ are worked out from the molar mass of the structure shown.

By MRT is commonly meant the average time that molecules of a dose stay in the body. Broadly, the LD50 is the dose at which mortality reaches 50%. The low end stands for greater toxicity, the high end for lower toxicity. One may read the MIC as the lowest concentration found to suppress growth. What is called half-life is the time in which the quantity being followed falls by half. By AUC is commonly meant the area under the concentration-time curve, a measure of exposure. The low end stands for low exposure, the high end for high exposure. The term clearance denotes a measure of how efficiently the substance is removed, as volume per time. Read a low clearance as a low capacity for elimination.

Data set [1] can be described thus: Mean residence time (Pharmacokinetic property) after i.v. administration in rats. Type of data set: ADME, organism-based. To be noted: rat, in vivo, iv.
A short description of data set [2]: Toxicity after intraperitoneal administration in rats and mice. To be noted: rodentia, in vivo, ip.
In data set [3] the test system is Mycobacterium tuberculosis. As to the kind of experiment: In vitro antibacterial activity against Mycobacterium tuberculosis MT ATCC H37Rv strain. Type of data set: functional.
The subject of data set [4] is Mycobacterium avium. In words: In vitro antibacterial activity of compound against Mycobacterium avium MAC ANI (wild type strain) isolated from infected patients. Type of data set: functional.
Data set [5] is described as follows: Volume of steady state distribution after i.v. administration in rats. It counts as ADME, organism-based. The conditions noted are these: rat, in vivo, iv; read-out: Vss.
Data set [6] can be described thus: Elimination half life after i.v. administration of compound in rats. The conditions noted are these: rat, in vivo, iv. Type of data set: ADME, organism-based.
Data set [7] has as its system Mycobacterium tuberculosis. As to the kind of experiment: In vitro antibacterial activity against Mycobacterium tuberculosis MT-1 (wild type strain) isolated from infected patients. Type of data set: functional.
For data set [8], the system named is Mycobacterium avium. In words: In vitro antibacterial activity of compound against Mycobacterium avium MAC AN3 (wild type strain) isolated from infected patients. It counts as functional.
Data set [9] deals with Mycobacterium avium. In words: In vitro antibacterial activity of compound against Mycobacterium avium MAC ISS-486 (wild type strain) isolated from infected patients. It counts as functional.
In data set [10] the test system is Mycobacterium avium. In words: In vitro antibacterial activity of compound against Mycobacterium avium MAC AN2 wild type strain) isolated from infected patients. Type of data set: functional.
Data set [11] relates to Mycobacterium tuberculosis. In words: In vitro antibacterial activity against Mycobacterium tuberculosis MT-2 (wild type strain) isolated from infected patients. Type of data set: functional.
Data set [12] can be described thus: Area under the curve (Concentration) was determined for the compound as AUC with limits 0-8 after i.v. administration in rats. It counts as ADME, organism-based. The arrangement: route intravenous. The conditions noted are these: rat, in vivo, iv.
The nature of data set [13]: Clearance rate after i.v. administration in rats. Type of data set: ADME, organism-based. To be noted: rat, in vivo, iv.
Data set [14] relates to Mycobacterium avium. As to the kind of experiment: In vitro antibacterial activity of compound against Mycobacterium avium MAC ATCC 15769. It counts as functional.

Take `OCC/N=C(\S)c1cccnc1S`: the MRT in data set [1] was 0.72 h. The molecule also showed an LD50 in [2] greater than 2000 mg/kg. The MIC in [3] was found to be 2 µg/mL (≈ 9.33 µM); against Mycobacterium avium [4] it was 4 µg/mL (≈ 18.7 µM); in data set [7], 4 µg/mL (≈ 18.7 µM); against Mycobacterium avium [8] it was 4 µg/mL (≈ 18.7 µM); against Mycobacterium avium [9] it was 8 µg/mL (≈ 37.3 µM); with Mycobacterium avium [10], 8 µg/mL (≈ 37.3 µM). Moreover, the MIC (in data set [11]; against Mycobacterium avium [14]) was 8 µg/mL (≈ 37.3 µM) each time. The Vd in [5] turned out to be 4.17 L/kg. Further, in data set [6], the half-life is 40.2 min. This molecule showed an AUC in data set [12] of 3730 ng·h/mL. Further, in data set [13], the clearance is 93.2 mL/min/kg.
For the molecule `CN(C)CC/N=C(\S)c1cccnc1S.Cl`, the MRT in data set [1] was determined as 2.83 h. Besides, the LD50 in data set [2] was greater than 2000 mg/kg. Also, the minimal inhibitory concentration (MIC) was 8 µg/mL in data set [3]; greater than 16 µg/mL in the data set on Mycobacterium avium [4]; 16 µg/mL in data set [7]; greater than 16 µg/mL in the data set with Mycobacterium avium [8]; greater than 16 µg/mL with Mycobacterium avium [9]; greater than 16 µg/mL against Mycobacterium avium [10]. Moreover, the MIC (in data set [11]; against Mycobacterium avium [14]) was greater than 16 µg/mL in each case. Also, the Vd in [5] is 11.2 L/kg. The same molecule had a half-life in data set [6] of 163 min. For the same molecule, the AUC in data set [12] was 6910 ng·h/mL. For the same molecule, the clearance in [13] is 60.8 mL/min/kg.
Take `Cl.S/C(=N\CCN1CCCC1)c1cccnc1S`: the MIC is 8 µg/mL in data set [3]; greater than 16 µg/mL in the data set on Mycobacterium avium [4]; 16 µg/mL in data set [7]; greater than 16 µg/mL in the data set on Mycobacterium avium [8]; greater than 16 µg/mL against Mycobacterium avium [9]; greater than 16 µg/mL in the data set with Mycobacterium avium [10]. The MIC (in [11]; against Mycobacterium avium [14]) was greater than 16 µg/mL in each case.
As to `CN1CCN(CCC/N=C(\S)c2cccnc2S)CC1.Cl`, the MIC in [3] was 8 µg/mL; in the data set with Mycobacterium avium [4], greater than 16 µg/mL; in data set [7], 16 µg/mL; in the data set with Mycobacterium avium [8], greater than 16 µg/mL; in the data set with Mycobacterium avium [9], greater than 16 µg/mL; against Mycobacterium avium [10], greater than 16 µg/mL. Moreover, the MIC (in data set [11]; with Mycobacterium avium [14]) was greater than 16 µg/mL in each case.
In data set [1], `Cl.S/C(=N\CCc1ccccn1)c1cccnc1S` came in with an MRT of 1.77 h. In [2], this molecule registered an LD50 greater than 2000 mg/kg. Further, the minimal inhibitory concentration (MIC) in [3] worked out at 4 µg/mL; against Mycobacterium avium [4], 8 µg/mL; in data set [7], 4 µg/mL; in the data set on Mycobacterium avium [8], 8 µg/mL; in the data set on Mycobacterium avium [9], 8 µg/mL; against Mycobacterium avium [10], 8 µg/mL. For the same molecule, the MIC in [11] stood at 1 µg/mL; against Mycobacterium avium [14], 4 µg/mL. The Vd in [5] stood at 14.5 L/kg. The molecule also showed a half-life in [6] of 133 min. Further, the exposure (AUC) in [12] came to 4700 ng·h/mL. The same molecule showed a clearance in data set [13] of 144 mL/min/kg.
Take `Cl.S/C(=N\CCCN1CCOCC1)c1cccnc1S`: the MIC is 4 µg/mL in data set [3]; greater than 16 µg/mL in the data set on Mycobacterium avium [4]; 8 µg/mL in data set [7]; greater than 16 µg/mL in the data set on Mycobacterium avium [8]; greater than 16 µg/mL against Mycobacterium avium [9]; greater than 16 µg/mL with Mycobacterium avium [10]. For the same molecule, the MIC in data set [11] is 8 µg/mL; with Mycobacterium avium [14] it was greater than 16 µg/mL.
As for `CC/N=C(\S)c1cccnc1S`, the minimum inhibitory concentration (MIC) is 0.5 µg/mL (≈ 2.52 µM) in data set [3]; 4 µg/mL (≈ 20.2 µM) in the data set with Mycobacterium avium [4]; 1 µg/mL (≈ 5.04 µM) in data set [7]; 8 µg/mL (≈ 40.3 µM) in the data set on Mycobacterium avium [8]; 4 µg/mL (≈ 20.2 µM) in the data set with Mycobacterium avium [9]; 8 µg/mL (≈ 40.3 µM) in the data set with Mycobacterium avium [10]. Also, the MIC in [11] was determined as 1 µg/mL (≈ 5.04 µM); in the data set on Mycobacterium avium [14] it was 4 µg/mL (≈ 20.2 µM). The Vd in data set [5] worked out at 0.93 L/kg. For the same molecule, the AUC in data set [12] stood at 15800 ng·h/mL. The same molecule gave a clearance in [13] of 20 mL/min/kg.
Take `CCCCCCC/N=C(\S)c1cccnc1S`: the MIC in data set [3] was 0.5 µg/mL (≈ 1.86 µM); in the data set on Mycobacterium avium [4], 4 µg/mL (≈ 14.9 µM); in [7], 2 µg/mL (≈ 7.45 µM); in the data set on Mycobacterium avium [8], 4 µg/mL (≈ 14.9 µM); against Mycobacterium avium [9], 4 µg/mL (≈ 14.9 µM); in the data set on Mycobacterium avium [10] it was 4 µg/mL (≈ 14.9 µM). Moreover, the MIC (in [11]; in the data set on Mycobacterium avium [14]) was 2 µg/mL (≈ 7.45 µM) throughout. Further, the Vd in data set [5] was 1.28 L/kg. In [12], this molecule registered an AUC of 8250 ng·h/mL. The molecule also gave a clearance in data set [13] of 50 mL/min/kg.
Consider `CC[C@@H](CO)NCCN[C@@H](CC)CO` [ETHAMBUTOL], for which the minimum inhibitory concentration (MIC) in [3] was no more than 2 µg/mL; against Mycobacterium avium [4], 1 µg/mL (≈ 4.89 µM); in data set [7] it was no more than 2 µg/mL; in the data set with Mycobacterium avium [8], 2 µg/mL (≈ 9.79 µM); against Mycobacterium avium [9], 2 µg/mL (≈ 9.79 µM); with Mycobacterium avium [10] it was 0.5 µg/mL (≈ 2.45 µM). Also, the minimal inhibitory concentration (MIC) in data set [11] was no more than 2 µg/mL.
